Usually IC50 stands for the concentration that gives 50% inhibition. One may read the stoichiometry N as the number of molecules, sites or subunits per partner or assembly.

Here are results for 6 molecules from article PMC11875179, “A fucose-binding superlectin from Enterobacter cloacae with high Lewis and ABO blood group antigen specificity” (The Journal of Biological Chemistry, 2024).

The target in data set [1] is T1, Enterobacter cloacae lectin A (EclA) (Enterobacter cloacae, UniProt A0A0H3CQ33). The data set is described as follows: competitive fluorescence polarization; thermal shift (Tm […] to […] °C). Format: binding. The arrangement: gene ECL_04191; full-length EclA and EclA-C (amino acids 140–283). (In general: Fluorescence polarisation rises when a labelled molecule tumbles more slowly, as on binding a larger partner.)
T1 sequence (A0A0H3CQ33 entry or part of it): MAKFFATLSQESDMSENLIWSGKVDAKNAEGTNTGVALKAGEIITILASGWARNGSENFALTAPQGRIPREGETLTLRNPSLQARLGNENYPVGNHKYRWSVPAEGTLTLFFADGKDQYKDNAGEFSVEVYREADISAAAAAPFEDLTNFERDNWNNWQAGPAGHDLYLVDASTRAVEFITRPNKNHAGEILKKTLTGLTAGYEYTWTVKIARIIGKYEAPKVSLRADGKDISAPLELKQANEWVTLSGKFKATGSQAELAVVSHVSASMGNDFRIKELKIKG

Data set [2] has as its target T1, Enterobacter cloacae lectin A (EclA). The data set is described as follows: competitive fluorescence polarization displacement of […]. In kind it is binding. The arrangement: gene ECL_04191; full-length EclA and EclA-C (amino acids 140–283).
Data set [3] deals with the molecule itself. The data set is described as follows: dynamic light scattering; Zetasizer Nano-ZS; 100 uM EclA-L or 200 uM EclA-N-tag and EclA-C in TBS/Ca (20 mM Tris, 137 mM NaCl, 2.6 mM KCl, pH 7.4, 1 mM CaCl2), 25 C; molecular weight estimated from the hydrodynamic radius.

Regarding `C[C@@H]1OC(O)[C@@H](O)[C@H](O)[C@@H]1O` (stereo partly drawn) [compound 1, L-fucose], the IC50 in data set [1] was in the range of 4000 to 4700 µM.
Take `CO[C@@H]1O[C@@H](C)[C@@H](O)[C@@H](O)[C@@H]1O` [compound 12, methyl α-L-fucoside]: the IC50 in data set [2] lay in the range of 1300 to 1400 µM.
In turn, `CO[C@H]1O[C@@H](C)[C@@H](O)[C@@H](O)[C@@H]1O` [compound 13, methyl β-L-fucoside] registered an IC50 in data set [2] of 1500 to 1800 µM.

B1: EclA-L (EclA-M14A), full-length Enterobacter cloacae lectin A with the second start codon mutated (natural protein)
chain: MAKFFATLSQESDASENLIWSGKVDAKNAEGTNTGVALKAGEIITILASGWARNGSENFALTAPQGRIPREGETLTLRNPSLQARLGNENYPVGNHKYRWSVPAEGTLTLFFADGKDQYKDNAGEFSVEVYREADISAAAAAPFEDLTNFERDNWNNWQAGPAGHDLYLVDASTRAVEFITRPNKNHAGEILKKTLTGLTAGYEYTWTVKIARIIGKYEAPKVSLRADGKDISAPLELKQANEWVTLSGKFKATGSQAELAVVSHVSASMGNDFRIKELKIKG
notes: EclA (Enterobacter cloacae lectin A), E. cloacae subsp. cloacae ATCC 13047, ECL_04191, 283 aa, with M14A; Tag-free, pET22b; Made to have one protein species only (second ATG at codon 14 removed); also called EclA-L (M14A); source: E. coli, expressed and purified as reported for EclA
B1: the “stoichiometry N” value in data set [3] was 2.

B2: EclA-C, native EclA C terminus (amino acids 140-283) (domain or fragment)
chain: MAAPFEDLTNFERDNWNNWQAGPAGHDLYLVDASTRAVEFITRPNKNHAGEILKKTLTGLTAGYEYTWTVKIARIIGKYEAPKVSLRADGKDISAPLELKQANEWVTLSGKFKATGSQAELAVVSHVSASMGNDFRIKELKIKG
notes: EclA, E. cloacae subsp. cloacae ATCC 13047, stated as amino acids 140-283 (144 aa); Tag-free; a selenomethionine-labelled form was also crystallised; also called C-terminal domain of EclA; source: E. coli BL21(DE3), purified (fucose-coupled sepharose, L-fucose elution)
For B2, the “stoichiometry N” value in data set [3] is 2.

B3: EclA-N-tag, N-terminally His6-tagged EclA N terminus (amino acids 2-140) (domain or fragment)
chain: AKFFATLSQESDASENLIWSGKVDAKNAEGTNTGVALKAGEIITILASGWARNGSENFALTAPQGRIPREGETLTLRNPSLQARLGNENYPVGNHKYRWSVPAEGTLTLFFADGKDQYKDNAGEFSVEVYREADISAAA
notes: EclA, E. cloacae subsp. cloacae ATCC 13047, residues 2-140, based on EclA-L (M14A); also called N-terminal domain of EclA; not shown: His6, N-terminal, kept
For the molecule B3, the “stoichiometry N” value in data set [3] is 2.
